{
  "source": "patent EP0377642B1",
  "about": "“HERBICIDES FOR WEED CONTROL IN RICE” (E.I. DU PONT DE NEMOURS AND COMPANY, priority 1987, dated 1989)",
  "assay_type_in_all_cases": "in vivo",
  "key": {"Monochoria vaginalis [1]": {"tested_on": "Monochoria vaginalis", "assay": "Herbicidal efficacy with 2,4-D in Malaysia (Table 21)", "details": "1000 GAI/HA; 42 days after treatment", "source_text": "(§1) Methyl 2-[[[[(4-methoxy-6-methyl-1,3,5-triazin-2-yl)amino]carbonyl]amino]sulfonyl]benzoate (Compound 1) and mixtures thereof with other compounds were applied as a spray (using a hand sprayer) to rice (either transplanted or direct seeded) in several rice growing areas in Southeast Asia and in the U.S. Tables 1-28 contain the results of these tests and clearly exemplify the utility of this invention. The details of each application are included in the appropriate table. [drawing 2]"}, "Ludwigia adscendens": {"tested_on": "Ludwigia adscendens", "assay": "Herbicidal efficacy with 2,4-D in Malaysia (Table 21)", "details": "1000 GAI/HA; 42 days after treatment", "source_text": "as §1"}, "Saggittaria guayanensis": {"tested_on": "Saggittaria guayanensis", "assay": "Herbicidal efficacy with 2,4-D in Malaysia (Table 21)", "details": "1000 GAI/HA; 42 days after treatment", "source_text": "as §1"}, "Scirpus spp.": {"tested_on": "Scirpus spp.", "assay": "Herbicidal efficacy with 2,4-D in Malaysia (Table 21)", "details": "1000 GAI/HA; 42 days after treatment", "source_text": "as §1"}, "FIMBRISTYLIS MILIACEA [2]": {"tested_on": "FIMBRISTYLIS MILIACEA", "assay": "Herbicidal efficacy with 2,4-D in Malaysia (Table 21)", "details": "1000 GAI/HA; 42 days after treatment", "source_text": "as §1"}, "Masilea crenata": {"tested_on": "Masilea crenata", "assay": "Herbicidal efficacy with 2,4-D in Malaysia (Table 21)", "details": "1000 GAI/HA; 42 days after treatment", "source_text": "as §1"}, "Ludwigia linifolia [3]": {"tested_on": "Ludwigia linifolia", "assay": "Herbicidal efficacy with Bensulfuron methyl and 2,4-D in Thailand (Table 20)", "details": "1500 GAI/HA; 14 days after treatment", "source_text": "as §1"}, "rice [4]": {"tested_on": "rice", "assay": "Herbicidal efficacy with Bensulfuron methyl and 2,4-D in Thailand (Table 20)", "details": "1500 GAI/HA; 14 days after treatment", "source_text": "as §1"}, "Cuperus iria": {"tested_on": "Cuperus iria", "assay": "Herbicidal efficacy with Bensulfuron methyl and 2,4-D in Thailand (Table 20)", "details": "1500 GAI/HA; 14 days after treatment", "source_text": "as §1"}, "Sphenoclea zeylanica [5]": {"tested_on": "Sphenoclea zeylanica", "assay": "Herbicidal efficacy with Bensulfuron methyl and 2,4-D in Thailand (Table 20)", "details": "1500 GAI/HA; 14 days after treatment", "source_text": "as §1"}, "FIMBRISTYLIS MILIACEA [6]": {"tested_on": "FIMBRISTYLIS MILIACEA", "assay": "Herbicidal efficacy with Bensulfuron methyl and 2,4-D in Thailand (Table 20)", "details": "1500 GAI/HA; 14 days after treatment", "source_text": "as §1"}, "Ludwigia linifolia [7]": {"tested_on": "Ludwigia linifolia", "assay": "Herbicidal efficacy with Bensulfuron methyl and 2,4-D in Thailand (Table 18)", "details": "1500 GAI/HA; 13 days after treatment", "source_text": "as §1"}, "Cyperus difformis [8]": {"tested_on": "Cyperus difformis", "assay": "Herbicidal efficacy with Bensulfuron methyl and 2,4-D in Thailand (Table 18)", "details": "1500 GAI/HA; 13 days after treatment", "source_text": "as §1"}, "rice [9]": {"tested_on": "rice", "assay": "Herbicidal efficacy with Bensulfuron methyl and 2,4-D in Thailand (Table 18)", "details": "1500 GAI/HA; 13 days after treatment", "source_text": "as §1"}, "Sphenoclea zeylanica [10]": {"tested_on": "Sphenoclea zeylanica", "assay": "Herbicidal efficacy with Bensulfuron methyl and 2,4-D in Thailand (Table 18)", "details": "1500 GAI/HA; 13 days after treatment", "source_text": "as §1"}, "Monochoria vaginalis [11]": {"tested_on": "Monochoria vaginalis", "assay": "Herbicidal efficacy alone and with 2,4-D in Malaysia, applied 30 days after seeding (Table 8)", "details": "22 days after treatment", "source_text": "as §1"}, "Marsilea crenata": {"tested_on": "Marsilea crenata", "assay": "Herbicidal efficacy alone and with 2,4-D in Malaysia, applied 30 days after seeding (Table 8)", "details": "22 days after treatment", "source_text": "as §1"}, "Scirpus grossus": {"tested_on": "Scirpus grossus", "assay": "Herbicidal efficacy alone and with 2,4-D in Malaysia, applied 30 days after seeding (Table 8)", "details": "22 days after treatment", "source_text": "as §1"}, "Cyperus difformis [12]": {"tested_on": "Cyperus difformis", "assay": "Herbicidal efficacy alone and with 2,4-D in Malaysia, applied 30 days after seeding (Table 8)", "details": "22 days after treatment", "source_text": "as §1"}, "Sphenoclea zeylanica [13]": {"tested_on": "Sphenoclea zeylanica", "assay": "Herbicidal efficacy alone and with 2,4-D in Malaysia, applied 30 days after seeding (Table 8)", "details": "22 days after treatment", "source_text": "as §1"}, "FIMBRISTYLIS MILIACEA [14]": {"tested_on": "FIMBRISTYLIS MILIACEA", "assay": "Herbicidal efficacy alone and with 2,4-D in Malaysia, applied 30 days after seeding (Table 8)", "details": "22 days after treatment", "source_text": "as §1"}, "Ludwigia linifolia [15]": {"tested_on": "Ludwigia linifolia", "assay": "Herbicidal efficacy with Bensulfuron methyl and 2,4-D in Thailand (Table 19)", "details": "1500 GAI/HA; 13 days after treatment", "source_text": "as §1"}, "rice [16]": {"tested_on": "rice", "assay": "Herbicidal efficacy with Bensulfuron methyl and 2,4-D in Thailand (Table 19)", "details": "1500 GAI/HA; 13 days after treatment", "source_text": "as §1"}, "Sphenoclea zeylanica [17]": {"tested_on": "Sphenoclea zeylanica", "assay": "Herbicidal efficacy with Bensulfuron methyl and 2,4-D in Thailand (Table 19)", "details": "1500 GAI/HA; 13 days after treatment", "source_text": "as §1"}, "Cuperus difformis": {"tested_on": "Cuperus difformis", "assay": "Herbicidal efficacy with Bensulfuron methyl and 2,4-D in Thailand (Table 19)", "details": "1500 GAI/HA; 13 days after treatment", "source_text": "as §1"}},
  "data": [
    {"smiles": "O=C(O)COc1ccc(Cl)cc1Cl", "note": "[2,4-D, 2,4-dichlorophenoxyacetic acid]", "values": [
      {"measurement": "% CONTROL OR INJURY MV", "setting": "Monochoria vaginalis [1]", "result": 100, "unit": "%"},
      {"measurement": "% CONTROL OR INJURY LA", "setting": "Ludwigia adscendens", "result": 93, "unit": "%"},
      {"measurement": "% CONTROL OR INJURY SG", "setting": "Saggittaria guayanensis", "result": 74, "unit": "%"},
      {"measurement": "% CONTROL OR INJURY SS", "setting": "Scirpus spp.", "result": 55, "unit": "%"},
      {"measurement": "% CONTROL OR INJURY FM", "setting": "FIMBRISTYLIS MILIACEA [2]", "result": 73, "unit": "%"},
      {"measurement": "% CONTROL OR INJURY MC", "setting": "Masilea crenata", "result": 56, "unit": "%"},
      {"measurement": "% CONTROL OR INJURY LL", "setting": "Ludwigia linifolia [3]", "result": 100, "unit": "%"},
      {"measurement": "% CONTROL OR INJURY RICE", "setting": "rice [4]", "result": 0, "unit": "%"},
      {"measurement": "% CONTROL OR INJURY CI", "setting": "Cuperus iria", "result": 100, "unit": "%"},
      {"measurement": "% CONTROL OR INJURY SZ", "setting": "Sphenoclea zeylanica [5]", "result": 33.3, "unit": "%"},
      {"measurement": "% CONTROL OR INJURY FM", "setting": "FIMBRISTYLIS MILIACEA [6]", "result": 100, "unit": "%"},
      {"measurement": "% CONTROL OR INJURY LL", "setting": "Ludwigia linifolia [7]", "result": 100, "unit": "%"},
      {"measurement": "% CONTROL OR INJURY CD", "setting": "Cyperus difformis [8]", "result": 100, "unit": "%"},
      {"measurement": "% CONTROL OR INJURY RICE", "setting": "rice [9]", "result": 0, "unit": "%"},
      {"measurement": "% CONTROL OR INJURY SZ", "setting": "Sphenoclea zeylanica [10]", "result": 90, "unit": "%"},
      {"measurement": "% CONTROL MV", "setting": "Monochoria vaginalis [11]; 500 GAI/HA", "result": 90, "unit": "%"},
      {"measurement": "% CONTROL MV", "setting": "Monochoria vaginalis [11]; 1000 GAI/HA", "result": 100, "unit": "%"},
      {"measurement": "% CONTROL MC", "setting": "Marsilea crenata; 500 GAI/HA", "result": 0, "unit": "%"},
      {"measurement": "% CONTROL MC", "setting": "Marsilea crenata; 1000 GAI/HA", "result": 0, "unit": "%"},
      {"measurement": "% CONTROL SG", "setting": "Scirpus grossus; 500 GAI/HA", "result": 50, "unit": "%"},
      {"measurement": "% CONTROL SG", "setting": "Scirpus grossus; 1000 GAI/HA", "result": 75, "unit": "%"},
      {"measurement": "% CONTROL CD", "setting": "Cyperus difformis [12]; 500 GAI/HA", "result": 95, "unit": "%"},
      {"measurement": "% CONTROL CD", "setting": "Cyperus difformis [12]; 1000 GAI/HA", "result": 100, "unit": "%"},
      {"measurement": "% CONTROL SZ", "setting": "Sphenoclea zeylanica [13]; 500 GAI/HA", "result": 100, "unit": "%"},
      {"measurement": "% CONTROL SZ", "setting": "Sphenoclea zeylanica [13]; 1000 GAI/HA", "result": 100, "unit": "%"},
      {"measurement": "% CONTROL FM", "setting": "FIMBRISTYLIS MILIACEA [14]; 500 GAI/HA", "result": 100, "unit": "%"},
      {"measurement": "% CONTROL FM", "setting": "FIMBRISTYLIS MILIACEA [14]; 1000 GAI/HA", "result": 100, "unit": "%"},
      {"measurement": "% CONTROL OR INJURY LL", "setting": "Ludwigia linifolia [15]", "result": 97, "unit": "%"},
      {"measurement": "% CONTROL OR INJURY RICE", "setting": "rice [16]", "result": 0, "unit": "%"},
      {"measurement": "% CONTROL OR INJURY SZ", "setting": "Sphenoclea zeylanica [17]", "result": 86, "unit": "%"},
      {"measurement": "% CONTROL OR INJURY CD", "setting": "Cuperus difformis", "result": 100, "unit": "%"}
    ]}
  ]
}
